Blank lines part the entries; values can stand above or below the compound they belong to.
Key:
C57BL/KsJ-db/db mice = assay: Blood sugar and triglyceride lowering in db/db mice; type: in vivo, mouse
Text: Mutation in colonies of laboratory animals and different sensitivities to dietary regimens have made the development of animal models with non-insulin dependent diabetes and hyperlipidemia associated with obesity and insulin resistance possible. Genetic models such as db/db and ob/ob (Diabetes, (1982) 31 (1): 1-6) mice and zucker fa/fa rates have been developed by the various laboratories for understanding the pathophysiology of disease and testing the efficacy of new antidiabetic compounds (Diabetes, (1983) 32: 830-838; Annu. Rep. Sankyo Res. Lab. (1994). 46: 1-57). The homozygous animals, C57 BL/KsJ-db/db mice developed by Jackson Laboratory, U.S., are obese, hyperglycemic, hyperinsulinemic and insulin resistant (J. Clin. Invest., (1990) 85: 962-967), whereas heterozygous are lean and normoglycemic. In db/db model, mouse progressively develops insulinopenia with age, a feature commonly observed in late stages of human type II diabetes when blood sugar levels are insufficiently controlled. The state of pancreas and its course vary according to the models. Since this model resembles that of type II diabetes mellitus, the compounds of the present invention were tested for blood sugar and triglycerides lowering activities.
Male C57BL/KsJ-db/db mice of 8 to 14 weeks age, having body weight range of 35 to 60 grams, bred at Dr. Reddy's Research Foundation (DRF) animal house, were used in the experiment. The mice were provided with standard feed (National Institute of Nutrition (NIN), Hyderabad, India) and acidified water, ad libitum. The animals having more than 350 mg/dl blood sugar were used for testing. The number of animals in each group was 4.
Test compounds were suspended on 0.25% carboxymethyl cellulose and administered to test group at a dose of 0.1 mg to 30 mg/kg through oral gavage daily for 6 days. The control group received vehicle (dose 10 mL/kg). On 6 th day the blood samples were collected one hour after administration of test compounds/vehicle for assessing the biological activity.
The random blood sugar and triglyceride levels were measured by collecting blood ([…]) through orbital sinus, using heparinised capillary in tubes containing EDTA which was centrifuged to obtain plasma. The plasma glucose and triglyceride levels were measured spectrometrically, by glucose oxidase and glycerol-3-PO4 oxidase/peroxidase enzyme (Dr. Reddy's Lab. Diagnostic Division Kits, Hyderabad, India) methods respectively.
The blood sugar and triglycerides lowering activities of the test compound was calculated according to the formula.
(§1) 1. Percent reduction in Blood sugar/triglycerides/total cholesterol were calculated according to the formula: [formula]

hPPARγ1 = biological target: T1, hPPARγ1 (Homo sapiens, UniProt P37231); assay: Determination of hPPARγ activity (GAL4 fusion luciferase reporter, HEK-293); type: cell-based; settings: 1 μM compound; HEK-293 cells, GAL4-hPPARγ1 LBD reporter
T1 construct: expressed in transfected cells; host or cells: HEK-293
T1 sequence (P37231 238-503 limits assumed): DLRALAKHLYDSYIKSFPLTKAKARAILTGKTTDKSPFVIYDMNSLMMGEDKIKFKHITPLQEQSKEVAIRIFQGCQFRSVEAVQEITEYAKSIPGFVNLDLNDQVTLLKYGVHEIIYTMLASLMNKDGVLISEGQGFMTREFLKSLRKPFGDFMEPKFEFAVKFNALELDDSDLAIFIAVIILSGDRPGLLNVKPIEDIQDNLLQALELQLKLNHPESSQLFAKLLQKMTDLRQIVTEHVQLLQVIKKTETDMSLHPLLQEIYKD
Procedure: (§2) Ligand binding domain of hPPARγ1 was fused to DNA binding domain of Yeast transcription factor GAL4 in eucaryotic expression vector. Using lipofectamine (Gibco BRL, USA) as transfecting reagent HEK-293 cells were transfected with this plasmid and a reporter plasmid harboring the luciferase gene driven by a GAL4 specific promoter. Compound was added at 1 μM concentration after 48 hrs of transfection and incubated overnight.

hPPARα = biological target: T2, hPPARα (Homo sapiens, UniProt Q07869); assay: Determination of hPPARα activity (GAL4 fusion luciferase reporter, HEK-293); type: cell-based; settings: 50 μM compound; HEK-293 cells, GAL4-hPPARα LBD reporter
T2 construct: expressed in transfected cells; host or cells: HEK-293
T2 sequence (Q07869 239-466 limits assumed): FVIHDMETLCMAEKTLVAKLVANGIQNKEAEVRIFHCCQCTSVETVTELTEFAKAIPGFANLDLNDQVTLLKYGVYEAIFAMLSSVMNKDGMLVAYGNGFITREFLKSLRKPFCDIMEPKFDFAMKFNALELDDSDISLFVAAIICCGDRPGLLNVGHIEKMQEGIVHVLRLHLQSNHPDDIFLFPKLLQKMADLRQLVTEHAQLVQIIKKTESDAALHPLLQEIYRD
Procedure: as §2, with “hPPARα” for “hPPARγ1”, “superfect (Qiagen, Germany)” for “lipofectamine (Gibco BRL, USA)”, “different concentrations” for “1 μM concentration”, “42” for “48”

Swiss albino mice = assay: Plasma triglyceride lowering activity in Swiss albino mice and Guinea pigs; type: in vivo, mouse; settings: dose 1 mg (mg/kg), oral, 6 days; table follows the Swiss albino mice / Guinea pig section
Procedure: Male Swiss albino mice (SAM) and male Guinea pigs were obtained from NIN and housed in DRF animal house. All these animals were maintained under 12 hour light and dark cycle at 25±1° C. Animals were given standard laboratory chow (NIN, Hyderabad, India) and water, ad libitum, SAM of 20-25 g body weight range and Guinea pigs of 500-700 g body weight range were used (Oliver, P., Plancke, M. O., Marzin. D., Clavey, V., Sauzieres, J and Fruchart, J. C. Effects of fenofibrate, gemfibrozil and nicotinic acid on plasma lipoprotein levels in normal and hyperlipidemic mice. Atherosclerosis. 1988. 70: 107-114).
The test compounds were administered orally to Swiss albino mice at 0.3 to 30 mg/kg/day dose for 6 days. Control mice were treated with vehicle (0.25% Carboxymethylcellulose; dose 10 mL/kg). The test compounds were administered orally to Guinea pigs at 0.3 to 30 mg/kg/day dose for 6 days. Control animals were treated with vehicle (0.25% Carboxymethylcellulose; dose 5 mL/kg).
The blood samples were collected in fed state 1 hour after drug administration on 0 and 6 day of treatment. The blood was collected from the retro-orbital sinus through heparinised capillary in EDTA containing tubes. After centrifugation, plasma sample was separation for triglyceride and total cholesterol (Wieland, O. Methods of Enzymatic analysis. Bergemeyer, H. O., Ed., 1963. 211-214; Trinder, P. Ann. Clin. Biochem. 1969. 6: 24-27). Measurement of plasma triglyceride, total cholesterol and HDL were done using commercial kits (Dr. Reddy's Diagnostic Division, Hyderabad, India).
as §1

[1] = 10 mg/kg oral gavage daily for 6 days
[2] = 3 mg/kg oral gavage daily for 6 days
[3] = 1 mg/kg oral gavage daily for 6 days

PPARγ (fold activation, luciferase activity) (hPPARγ1): 5.20 Fold
PPARα (fold activation, luciferase activity) (hPPARα): 6.42 Fold
Compound: CCOC(Cc1ccc(OCCN2c3ccccc3Sc3ccccc32)cc1)C(=O)O (racemic) [Example 11, (±) 3-[4-[2-(Phenothiazin-10-yl)ethoxy]phenyl]-2-ethoxypropanoic acid]
Reduction in Blood Glucose Level (%) (C57BL/KsJ-db/db mice; [1]): 66%
Triglyceride Lowering (%) (C57BL/KsJ-db/db mice; [1]): 50%

Compound: CCOC(Cc1ccc2oc(CN3c4ccccc4Sc4ccccc43)cc2c1)C(=O)[O-].[Na+] (racemic) [Example 14, (±) 3-[2-(Phenothiazin-10-yl)methylbenzofuran-5-yl]-2-ethoxypropanoic acid, sodium salt]
Reduction in Blood Glucose Level (%) (C57BL/KsJ-db/db mice; [2]): 52%
Triglyceride Lowering (%) (C57BL/KsJ-db/db mice; [2]): 61%

Compound: CC(Cc1ccc(OCCN2c3ccccc3Oc3ccccc32)cc1)(Oc1ccccc1)C(=O)[O-].[Na+] (racemic) [Example 30, (±)3-[4-[2-(Phenoxazin-10-yl)ethoxy]phenyl]-2-phenoxy-2-methylpropanoic acid, sodium salt]
Triglyceride Lowering (%) (Swiss albino mice): 58%
Reduction in Blood Glucose Level (%) (C57BL/KsJ-db/db mice; [3]): 44%
Triglyceride Lowering (%) (C57BL/KsJ-db/db mice; [3]): 05%
PPARγ (fold activation, luciferase activity) (hPPARγ1): 13.9 Fold
PPARα (fold activation, luciferase activity) (hPPARα): 9.3 Fold

Compound: CCOC(Cc1ccc(OCCN2c3ccccc3Oc3ccccc32)cc1)C(=O)O.N=C(N)NCCC[C@H](N)C(=O)O (single isomer, unassigned; (-)) [Example 28, (−) 3-[4-[2-(Phenoxazin-10-yl)ethoxy]phenyl]-2-ethoxypropanoic acid, arginine salt]
Triglyceride Lowering (%) (Swiss albino mice): 22%
Reduction in Blood Glucose Level (%) (C57BL/KsJ-db/db mice; [3]): 40%
Triglyceride Lowering (%) (C57BL/KsJ-db/db mice; [3]): 40%

Compound: (−) 3-[4-[2-(Phenoxazin-10-yl)ethoxy]phenyl]-2-ethoxypropanoic acid, magnesium salt [Example 25]
Triglyceride Lowering (%) (Swiss albino mice): 6%
